PubChem BioAssay (NCI)
Values joined by “and” are separate entries in the source; they are usually repeats but may differ in a detail not shown here. Identical values can stand only once.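 Grown in 96-well plates, cells were treated for 48 hours with each compound at five concentrations. Insufficient inhibition: endpoint recorded as highest concentration tested. GI50: concentration for 50% inhibition of growth. TGI: concentration producing complete growth inhibition.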

Tests used:
Experiment in all cases: NCI tumour cell line growth inhibition, 48 h
CCRF-CEM leukemia = system: CCRF-CEM leukemia
HCT-116 colon = system: HCT-116 colon
SN12C renal = system: SN12C renal
MALME-3M melanoma = system: MALME-3M melanoma
PC-3 prostate = system: PC-3 prostate
NCI-H226 lung = system: NCI-H226 lung
M14 melanoma = system: M14 melanoma
SK-MEL-5 melanoma = system: SK-MEL-5 melanoma
DU-145 prostate = system: DU-145 prostate
MDA-MB-435 = system: MDA-MB-435
IGROV1 ovarian = system: IGROV1 ovarian
MOLT-4 leukemia = system: MOLT-4 leukemia
MCF7 breast = system: MCF7 breast
SK-MEL-28 melanoma = system: SK-MEL-28 melanoma
HS 578T breast = system: HS 578T breast
MDA-N = system: MDA-N
NCI/ADR-RES ovarian = system: NCI/ADR-RES ovarian
786-0 renal = system: 786-0 renal
EKVX NSCLC = system: EKVX NSCLC
HOP-92 NSCLC = system: HOP-92 NSCLC
HOP-62 NSCLC = system: HOP-62 NSCLC
OVCAR-8 ovarian = system: OVCAR-8 ovarian
K-562 leukemia = system: K-562 leukemia
UACC-257 melanoma = system: UACC-257 melanoma
A549 NSCLC = system: A549 NSCLC
TK-10 renal = system: TK-10 renal
SNB-19 CNS = system: SNB-19 CNS
SF-268 CNS = system: SF-268 CNS
OVCAR-3 ovarian = system: OVCAR-3 ovarian
HCT-15 colon = system: HCT-15 colon
OVCAR-4 ovarian = system: OVCAR-4 ovarian
A498 renal = system: A498 renal
KM12 colon = system: KM12 colon
SF-539 CNS = system: SF-539 CNS
RPMI-8226 leukemia = system: RPMI-8226 leukemia
SW-620 colon = system: SW-620 colon
ACHN renal = system: ACHN renal
MDA-MB-231 breast = system: MDA-MB-231 breast
LOX IMVI melanoma = system: LOX IMVI melanoma
OVCAR-5 ovarian = system: OVCAR-5 ovarian
NCI-H460 lung = system: NCI-H460 lung
SNB-75 CNS = system: SNB-75 CNS
SR leukemia = system: SR leukemia
RXF 393 renal = system: RXF 393 renal
U251 CNS = system: U251 CNS
HCC-2998 colon = system: HCC-2998 colon
HL-60(TB) leukemia = system: HL-60(TB) leukemia
HT29 colon = system: HT29 colon
SF-295 CNS = system: SF-295 CNS
NCI-H23 lung = system: NCI-H23 lung
BT-549 breast = system: BT-549 breast

## O=C1CC(CC(OCc2ccccc2)C(OCc2ccccc2)C(COCc2ccccc2)OCc2ccccc2)CC(=O)N1 (configuration not stated)
CCRF-CEM leukemia
  TGI: > 100 µM
HCT-116 colon
  TGI: > 100 µM and 34.2 µM
SN12C renal
  GI50: > 100 µM and 18.6 µM
  TGI: > 100 µM and 54.1 µM
MALME-3M melanoma
  GI50: > 100 µM and 15.5 µM
  TGI: > 100 µM and 32.4 µM
PC-3 prostate
  GI50: > 100 µM and 11.3 µM
  TGI: > 100 µM and 38.5 µM
NCI-H226 lung
  GI50: > 100 µM and 17.7 µM
  TGI: > 100 µM and 62.4 µM
M14 melanoma
  GI50: > 100 µM and 19.8 µM
  TGI: > 100 µM
SK-MEL-5 melanoma
  GI50: > 100 µM and 12.6 µM
  TGI: > 100 µM and 25.6 µM
DU-145 prostate
  GI50: > 100 µM and 27.1 µM
  TGI: > 100 µM
MDA-MB-435
  TGI: > 100 µM and 21.7 µM
IGROV1 ovarian
  GI50: > 100 µM and 17.2 µM
  TGI: > 100 µM and 33.7 µM
MOLT-4 leukemia
  TGI: > 100 µM and 35.3 µM
MCF7 breast
  TGI: > 100 µM and 31.4 µM
SK-MEL-28 melanoma
  GI50: > 100 µM and 21.4 µM
  TGI: > 100 µM
HS 578T breast
  GI50: > 100 µM and 16.5 µM
  TGI: > 100 µM and 33.9 µM
MDA-N
  GI50: > 100 µM and 12.5 µM
  TGI: > 100 µM and 27.7 µM
NCI/ADR-RES ovarian
  GI50: > 100 µM and 12.8 µM
  TGI: > 100 µM
786-0 renal
  GI50: > 100 µM and 11 µM
  TGI: > 100 µM and 49.3 µM
EKVX NSCLC
  GI50: > 100 µM and 12.5 µM
  TGI: > 100 µM
HOP-92 NSCLC
  TGI: > 100 µM
HOP-62 NSCLC
  GI50: > 100 µM and 26.8 µM
  TGI: > 100 µM and 73.1 µM
OVCAR-8 ovarian
  GI50: > 100 µM and 13.7 µM
  TGI: > 100 µM and 48.8 µM
K-562 leukemia
  TGI: > 100 µM
UACC-257 melanoma
  GI50: > 100 µM and 16.3 µM
  TGI: > 100 µM and 36.4 µM
A549 NSCLC
  TGI: > 100 µM
TK-10 renal
  TGI: > 100 µM
SNB-19 CNS
  GI50: > 100 µM and 33.8 µM
  TGI: > 100 µM
SF-268 CNS
  GI50: > 100 µM and 11.2 µM
  TGI: > 100 µM and 65.3 µM
OVCAR-3 ovarian
  GI50: > 100 µM and 12.2 µM
  TGI: > 100 µM and 44 µM
HCT-15 colon
  TGI: > 100 µM and 47.2 µM
OVCAR-4 ovarian
  TGI: > 100 µM
A498 renal
  GI50: > 100 µM and 21.7 µM
  TGI: > 100 µM and 89 µM
KM12 colon
  TGI: > 100 µM and 21.3 µM
SF-539 CNS
  GI50: > 100 µM and 16.8 µM
  TGI: > 100 µM and 35.5 µM
RPMI-8226 leukemia
  TGI: > 100 µM and 32.8 µM
SW-620 colon
  GI50: > 100 µM and 11.7 µM
  TGI: > 100 µM and 23.9 µM
ACHN renal
  GI50: > 100 µM and 18.2 µM
  TGI: > 100 µM
MDA-MB-231 breast
  TGI: 23.7 µM
LOX IMVI melanoma
  GI50: > 100 µM and 10.7 µM
  TGI: > 100 µM and 22.5 µM
OVCAR-5 ovarian
  GI50: > 100 µM and 24.9 µM
  TGI: > 100 µM and 80.8 µM
NCI-H460 lung
  TGI: > 100 µM and 97.7 µM
SNB-75 CNS
  TGI: > 100 µM and 75.2 µM
SR leukemia
  TGI: > 100 µM and 65.4 µM
RXF 393 renal
  GI50: 24.5 µM and 2.72 µM
  TGI: > 100 µM and 15 µM
U251 CNS
  TGI: > 100 µM and 18.1 µM
HCC-2998 colon
  GI50: > 100 µM and 12.9 µM
  TGI: > 100 µM and 42.9 µM
HL-60(TB) leukemia
  TGI: > 100 µM and 25.4 µM
HT29 colon
  TGI: 18 µM
SF-295 CNS
  GI50: > 100 µM and 11.2 µM
  TGI: > 100 µM and 28.4 µM
NCI-H23 lung
  GI50: > 100 µM and 18.6 µM
  TGI: > 100 µM
BT-549 breast
  GI50: > 100 µM and 12.6 µM
  TGI: > 100 µM and 25.3 µM
